According to PubChem BioAssay AID248 (DTP/NCI, 2004):
Several values for one entry are separate records, joined by “and”; a condition that tells them apart may be missing. Equal entries are not always repeated. Inconclusive results and toxic doses are left out.

System: L1210 leukemia ip in BDF1 mice, survival T/C
Test: NCI In Vivo Anticancer Drug Screen. Data for tumor model L1210 Leukemia (intraperitoneal) in B6D2F1 (BDF1) mice
Conditions: endpoint: mean survival time, higher = longer survival
How it was run: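 In this screen, tumor-bearing mice given compound are compared to those given vehicle, and their survival values are reported as a treated-to-control quotient.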

[1] = dose: 100.0 mg/kg/injection, schedule: Q01DX001 (ip), vehicle: saline
[2] = dose: 400.0 mg/kg/injection, schedule: Q01DX001 (ip), vehicle: saline
[3] = dose: 100.0 mg/kg/injection, schedule: Q04DX003 (ip), vehicle: saline with Tween-80
[4] = dose: 200.0 mg/kg/injection, schedule: Q04DX003 (ip), vehicle: saline with Tween-80
[5] = dose: 400.0 mg/kg/injection, schedule: Q04DX003 (ip), vehicle: saline with Tween-80
[6] = dose: 200.0 mg/kg/injection, schedule: Q01DX001 (ip), vehicle: saline

SMILES: O=C(CCc1ccncc1)c1ccccc1
- T/C (dose: 50.0 mg/kg/injection, schedule: Q01DX001 (ip), vehicle: carboxymethylcellulose (CMC)): 114 % of control
- T/C (dose: 100.0 mg/kg/injection, schedule: Q01DX001 (ip), vehicle: carboxymethylcellulose (CMC)): 102 % of control
- T/C (dose: 200.0 mg/kg/injection, schedule: Q01DX001 (ip), vehicle: carboxymethylcellulose (CMC)): 102 % of control
- T/C (dose: 400.0 mg/kg/injection, schedule: Q01DX001 (ip), vehicle: carboxymethylcellulose (CMC)): 102 % of control

SMILES: O=C1c2cccc3cccc(c23)C(=O)N1c1ncn[nH]1
- T/C (dose: 50.0 mg/kg/injection, schedule: Q01DX001 (ip), vehicle: saline): 94 % of control
- T/C [1]: 107 % of control
- T/C [2]: 102 % of control

SMILES: O=C(/C=C/c1cccnc1)/C=C/c1cccnc1
- T/C (dose: 80.0 mg/kg/injection, schedule: Q01DX009 (ip), vehicle: Klucel (hydroxypropylcellulose) (HPC)): 108 % of control

SMILES: CCN=C(c1ccc(NC(=O)c2ccc(C(=O)Nc3ccc(C(=NCC)N(CC)C(=O)Nc4ccc(OC)cc4)cc3)cc2)cc1)N(CC)C(=O)Nc1ccc(OC)cc1
- T/C (dose: 2.25 mg/kg/injection, schedule: Q01DX015 (ip), vehicle: methylcellulose (MC)): 108 % of control
- T/C (dose: 3.12 mg/kg/injection, schedule: Q01DX015 (ip), vehicle: methylcellulose (MC)): 101 % of control
- T/C (dose: 4.5 mg/kg/injection, schedule: Q01DX015 (ip), vehicle: methylcellulose (MC)): 110 % of control
- T/C (dose: 6.25 mg/kg/injection, schedule: Q01DX015 (ip), vehicle: methylcellulose (MC)): 124 % of control
- T/C (dose: 12.5 mg/kg/injection, schedule: Q01DX015 (ip), vehicle: methylcellulose (MC)): 170 % of control

SMILES: O=C(O)/C=C\C(=O)Nc1ccc2c(c1)Cc1cc(Cl)ccc1-2
- T/C [3]: 92 % of control
- T/C [4]: 87 % of control

SMILES: CC(=O)Nc1ccc(S(=O)(=O)NC(=O)NC(C)C)cc1
- T/C [3]: 103 % of control
- T/C [4]: 97 % of control
- T/C [5]: 100 % of control

SMILES: COCCCN=C(N)c1ccc(NC(=O)c2ccc(C(=O)Nc3ccc(C(N)=NCCCOC)cc3)cc2)cc1
- T/C (dose: 0.75 mg/kg/injection, schedule: Q01DX Z (ip), vehicle: saline): 114 % of control
- T/C (dose: 1.0 mg/kg/injection, schedule: Q01DX006 (iv), vehicle: saline): 106 % of control
- T/C (dose: 1.0 mg/kg/injection, schedule: Q01DX Z (ip), vehicle: saline): 119 % of control
- T/C (dose: 1.0 mg/kg/injection, schedule: Q01DX Z (sc), vehicle: saline): 102 % of control
- T/C (dose: 1.0 mg/kg/injection, schedule: Q02DX004 (im), vehicle: saline): 96 % of control
- T/C (dose: 2.0 mg/kg/injection, schedule: Q01DX006 (iv), vehicle: saline): 98 % of control
- T/C (dose: 2.0 mg/kg/injection, schedule: Q01DX Z (sc), vehicle: saline): 90 % of control
- T/C (dose: 2.0 mg/kg/injection, schedule: Q02DX004 (im), vehicle: saline): 107 % of control
- T/C (dose: 3.0 mg/kg/injection, schedule: Q01DX Z (ip), vehicle: saline): 156 % of control and 183 % of control
- T/C (dose: 4.0 mg/kg/injection, schedule: Q01DX006 (iv), vehicle: saline): 122 % of control
- T/C (dose: 4.0 mg/kg/injection, schedule: Q01DX Z (ip), vehicle: saline): 223 % of control
- T/C (dose: 4.0 mg/kg/injection, schedule: Q01DX Z (sc), vehicle: saline): 154 % of control
- T/C (dose: 4.0 mg/kg/injection, schedule: Q02DX004 (im), vehicle: saline): 106 % of control
- T/C (dose: 6.0 mg/kg/injection, schedule: Q01DX Z (ip), vehicle: saline): 269 % of control
- T/C (dose: 6.0 mg/kg/injection, schedule: Q01DX Z (oral), vehicle: saline): 97 % of control
- T/C (dose: 8.0 mg/kg/injection, schedule: Q01DX006 (iv), vehicle: saline): 189 % of control
- T/C (dose: 8.0 mg/kg/injection, schedule: Q01DX Z (sc), vehicle: saline): 158 % of control
- T/C (dose: 12.0 mg/kg/injection, schedule: Q01DX Z (oral), vehicle: saline): 100 % of control
- T/C (dose: 15.0 mg/kg/injection, schedule: Q01DX Z (ip), vehicle: saline): 115 % of control
- T/C (dose: 16.0 mg/kg/injection, schedule: Q01DX Z (ip), vehicle: saline): 112 % of control
- T/C (dose: 16.0 mg/kg/injection, schedule: Q01DX Z (sc), vehicle: saline): 116 % of control
- T/C (dose: 16.0 mg/kg/injection, schedule: Q02DX004 (im), vehicle: saline): 154 % of control
- T/C (dose: 24.0 mg/kg/injection, schedule: Q01DX Z (oral), vehicle: saline): 102 % of control
- T/C (dose: 32.0 mg/kg/injection, schedule: Q02DX004 (im), vehicle: saline): 118 % of control
- T/C (dose: 48.0 mg/kg/injection, schedule: Q01DX Z (oral), vehicle: saline): 100 % of control
- T/C (dose: 62.5 mg/kg/injection, schedule: Q## X010 (oral), vehicle: saline): 96 % of control
- T/C (dose: 250.0 mg/kg/injection, schedule: Q## X010 (oral), vehicle: saline): 119 % of control

SMILES: CCN1C(=O)C(CC)(Cc2ccccc2)C(=O)NC1=S (stereo unspecified)
- T/C (dose: 75.0 mg/kg/injection, schedule: Q01DX001 (ip), vehicle: alkali diluted with saline): 103 % of control
- T/C (dose: 75.0 mg/kg/injection, schedule: Q01DX001 (ip), vehicle: other): 108 % of control
- T/C (dose: 150.0 mg/kg/injection, schedule: Q01DX001 (ip), vehicle: alkali diluted with saline): 98 % of control
- T/C (dose: 150.0 mg/kg/injection, schedule: Q01DX001 (ip), vehicle: other): 105 % of control
- T/C (dose: 300.0 mg/kg/injection, schedule: Q01DX001 (ip), vehicle: alkali diluted with saline): 108 % of control
- T/C (dose: 300.0 mg/kg/injection, schedule: Q01DX001 (ip), vehicle: other): 103 % of control

SMILES: OCn1cnc2c(SC3CCCC3)ncnc21
- T/C (dose: 35.0 mg/kg/injection, schedule: Q01DX015 (ip), vehicle: saline): 114 % of control
- T/C (dose: 50.0 mg/kg/injection, schedule: Q01DX009 (ip), vehicle: saline): 112 % of control
- T/C (dose: 50.0 mg/kg/injection, schedule: Q01DX015 (ip), vehicle: saline): 123 % of control
- T/C (dose: 80.0 mg/kg/injection, schedule: Q01DX009 (ip), vehicle: saline): 119 % of control
- T/C (dose: 88.0 mg/kg/injection, schedule: Q01DX009 (ip), vehicle: Klucel (hydroxypropylcellulose) (HPC)): 154 % of control
- T/C [1]: 88 % of control
- T/C (dose: 120.0 mg/kg/injection, schedule: Q01DX015 (ip), vehicle: saline): 153 % of control
- T/C (dose: 180.0 mg/kg/injection, schedule: Q01DX009 (ip), vehicle: other): 152 % of control
- T/C (dose: 180.0 mg/kg/injection, schedule: Q01DX015 (ip), vehicle: saline): 161 % of control
- T/C [6]: 104 % of control
- T/C (dose: 200.0 mg/kg/injection, schedule: Q01DX009 (ip), vehicle: Klucel (hydroxypropylcellulose) (HPC)): 92 % of control
- T/C (dose: 270.0 mg/kg/injection, schedule: Q01DX015 (ip), vehicle: saline): 113 % of control
- T/C [2]: 111 % of control

SMILES: CN1C(=O)C(Br)C(Br)c2ccccc21 (stereo unspecified)
- T/C (dose: 100.0 mg/kg/injection, schedule: Q01DX001 (ip), vehicle: other): 107 % of control
- T/C (dose: 200.0 mg/kg/injection, schedule: Q01DX001 (ip), vehicle: other): 102 % of control

SMILES: CCCCCCCCCCCCc1c2ccccc2cc2ccccc12
- T/C [1]: 97 % of control
- T/C [6]: 98 % of control
- T/C [2]: 92 % of control

SMILES: CCCP(=S)(CCC)P(=S)(CCC)CCC
- T/C (dose: 100.0 mg/kg/injection, schedule: Q04DX002 (ip), vehicle: Klucel (hydroxypropylcellulose) (HPC)): 100 % of control
- T/C (dose: 200.0 mg/kg/injection, schedule: Q04DX002 (ip), vehicle: Klucel (hydroxypropylcellulose) (HPC)): 92 % of control
- T/C (dose: 400.0 mg/kg/injection, schedule: Q04DX002 (ip), vehicle: Klucel (hydroxypropylcellulose) (HPC)): 92 % of control

SMILES: OCC1=CCN(CCc2c[nH]c3ccccc23)CC1
- T/C [3]: 95 % of control
- T/C [4]: 88 % of control
- T/C [5]: 94 % of control

SMILES: Nc1cc(S(=O)(=O)O)cc2cc(S(=O)(=O)O)c(N=Nc3cc(S(=O)(=O)O)cc4cc(S(=O)(=O)O)cc(O)c34)c(O)c12
- T/C (dose: 100.0 mg/kg/injection, schedule: Q01DX009 (ip), vehicle: saline): 105 % of control
- T/C (dose: 100.0 mg/kg/injection, schedule: Q04DX003 (ip), vehicle: saline): 96 % of control
- T/C (dose: 200.0 mg/kg/injection, schedule: Q01DX009 (ip), vehicle: saline): 94 % of control
- T/C (dose: 200.0 mg/kg/injection, schedule: Q04DX003 (ip), vehicle: saline): 91 % of control
- T/C (dose: 400.0 mg/kg/injection, schedule: Q01DX009 (ip), vehicle: saline): 95 % of control
- T/C (dose: 400.0 mg/kg/injection, schedule: Q04DX003 (ip), vehicle: saline): 96 % of control
